Measured values: patent publication US12599640B2, “Lactobacillus plantarum ZUST49 and bacterial agent, and use thereof” (ZHEJIANG UNIVERSITY OF SCIENCE AND TECHNOLOGY, priority 2023, dated 2026)

Experiment: Production of sulforaphane by feeding mice with enteric capsule (plasma sulforaphane, cyclocondensation method)
Type: in vivo
Settings: mouse plasma; intragastric glucoraphanin aqueous solution, 150 μmol of glucoraphanin/kg; blood taken at 0 h and 12 h
Excerpt: C57BL/6 male mice of 6 to 8 weeks were pre-reared for 1 week and randomly divided into an enteric capsule group, a glucoraphanin group, and a blank group. Mice in the enteric capsule group were intragastrically administered daily with an enteric capsule aqueous solution containing Lactobacillus plantarum ZUST49 and glucoraphanin (150 μmol of glucoraphanin/kg and ZUST49 content of 8.7×10^5 CFU/g, and prepared according to the method of example 3). The mice in the glucoraphanin group were intragastrically administrated with a glucoraphanin aqueous solution (150 μmol of glucoraphanin/kg). The mice were fed with food and water ad libitum. Food intake and weight were recorded daily. The mice were deeply anesthetized with an intraperitoneal injection of ketamine/xylazine (87 mg/mL and 13 mg/mL respectively, and 0.1 mL/100 g mice) at 0 h and 12 h (6 mice/group each time period), and put to death by cervical dislocation after blood collection by cardiac puncture. The sulforaphane content in plasma of the mice was determined by a cyclocondensation method.

SMILES: C[S+]([O-])CCCC/C(=N\OS(=O)(=O)O)S[C@@H]1O[C@H](CO)[C@@H](O)[C@H](O)[C@H]1O (stereo partly shown) [glucoraphanin]
- sulforaphane content in the plasma of the mice: 0.017 ± 0.030 µM
